Assay results from patent publication US11788146B2, “Methods for therapeutics prescreening in bodily fluids” (BARCODE DIAGNOSTICS LTD., priority 2017, dated 2023).
Where two headings read alike, the source gives them in different places.

Legend:
[1] = tested on: 4T1 cells; settings: cited from earlier work
[2] = tested on: 4T1 cells; settings: cited from earlier work; remark: listed apart in the source
[3] = tested on: triple negative breast cancer tumor; assay: Barcode analysis in live and dead tumor cells after injection of liposome mixes; format: in vivo, BALB/c female mice; settings: 5%, 1% or 0.1% of ETD liposome mixes; 48 hours post injection; patent regards it as likely artifact
Excerpt: FIGS. 1A-C: Detection of barcodes from liposome mixes with equal relative drug concentrations. Bar charts showing the potency of gemcitabine, cisplatin and doxorubicin against triple negative breast cancer tumors when the drugs are provided at (1A) 5%, (1B) 1%, and (1C) 0.1% of the effective therapeutic dose (ETD). Potency of the drugs was defined as the ratio of the amount of a barcode in dead cells to the amount of that barcode in live cells.
Each drug has its own specific effective therapeutic dose […], and in order to test efficacy it is reasonable that each liposome mix (a mix of all three types of liposomes to be injected together) should have the same relative amount of each drug. That is, in order to determine an ideal dose, batches of mixed liposomes were generated in which all three drugs were present in a concentration that was either 5%, 1% or 0.1% of the effective therapeutic dose. Table 2 provides the amounts (in ul) of each liposome batch that were added to the mix in order to provide each total dose.
Cell from a triple negative breast cancer tumor were transplanted to the fat pad of BALB/c female mice and allowed to grow to form tumors in the mice. The mice were separated into 3 groups and then each group was injected with the 5%, 1% or 0.1% liposome mixes. […]

COc1cccc2c1C(=O)c1c(O)c3c(c(O)c1C2=O)C[C@@](O)(C(=O)CO)C[C@@H]3O[C@H]1C[C@H](N)[C@H](O)[C@H](C)O1 [doxorubicin]
Resistance of 4T1 cells [1]: become resistant | Sensitivity of 4T1 cells [1]: less so

Nc1ccn([C@@H]2O[C@H](CO)[C@@H](O)C2(F)F)c(=O)n1 [Gemcitabine]
Effect on tumor growth ([2]; at later time points): not be effective | Effect on tumor growth ([2]; within the first couple of days of treatment): retards tumor growth | Effectiveness relative to the other two drugs [3]: > 10 fold | Potency (ratio of barcode in dead cells to barcode in live cells), ranking [3]: most effective treatment

N.N.[Cl][Pt][Cl] [cisplatin]
Sensitivity of 4T1 cells [1]: highly sensitive
